Patent US20240158446A1, “CYCLIC COMPOUND HAVING SELECTIVE INHIBITORY ACTION ON KRAS OVER HRAS AND NRAS” (CHUGAI SEIYAKU KABUSHIKI KAISHA, priority 2021, published 2024)
Like-named read-outs stand apart in the source and are kept apart here. *1 amine or outer side, *2 acyl side, *3 side chain or, on linkers, in order; H or OH if unused. Where a SMILES comes first, the peptide text is derived from it. Bridges are numbered along the chain shown (N, C = ends). [ ]: non-standard residue; d: D form. The star is where a group is joined. hPhe(3-Cl-4-CF3) = N[C@@H](CCc1ccc(C(F)(F)F)c(Cl)c1)C(=O)O; NPrPhe(4-CF3) = CCCN[C@@H](Cc1ccc(C(F)(F)F)cc1)C(=O)O; X30 = C=CCCN([C@@H](Cc1ccc(C)cc1)C(=O)[*:2])[*:1]; NMeGly(cPent) = CN[C@H](C(=O)O)C1CCCC1; NMeAllylGly = C=CC[C@H](NC)C(=O)O; Hyp = O=C(O)[C@@H]1C[C@@H](O)CN1; NMeD = CN[C@@H](CC(=O)O)C(=O)O; NMeL = CN[C@@H](CC(C)C)C(=O)O; Morpholide = C1CN(*)CCO1; Ac5c = NC1(C(=O)O)CCCC1; Ac4c = NC1(C(=O)O)CCC1; NPrGly = CCCNCC(=O)O; NEtG = CCNCC(=O)O; Sar = CNCC(=O)O

What was measured:
[1] = molecular target: GDP-bound NRAS wild-type protein (Homo sapiens, UniProt P01111); experiment: Binding to NRAS by surface plasmon resonance (SPR), Single Cycle Kinetics; conditions: for NRAS/KRAS (ratio of KD value with respect to GDP-bound NRAS wild-type protein to KD value with respect to KRAS): SPR KD ratio NRAS/KRAS, class symbols
[2] = molecular target: GDP-bound KRAS wild-type protein (Homo sapiens, UniProt P01116); experiment: Binding to KRAS by surface plasmon resonance (SPR), Single Cycle Kinetics; conditions: GDP-bound KRAS wild-type protein, read-out: KRAS KD
[3] = molecular target: GDP-bound HRAS wild-type protein (Homo sapiens, UniProt P01112); experiment: Binding to HRAS by surface plasmon resonance (SPR), Single Cycle Kinetics; conditions: for HRAS/KRAS (ratio of KD value with respect to GDP-bound HRAS wild-type protein to KD value with respect to KRAS): SPR KD ratio HRAS/KRAS, class symbols
[4] = SPR, GDP-bound NRAS wild-type protein vs GDP-bound KRAS wild-type protein
[5] = SPR, GDP-bound HRAS wild-type protein vs GDP-bound KRAS wild-type protein
[6] = SPR Single Cycle Kinetics, 1:1 binding model

Sequence of GDP-bound NRAS wild-type protein (P01111 whole entry): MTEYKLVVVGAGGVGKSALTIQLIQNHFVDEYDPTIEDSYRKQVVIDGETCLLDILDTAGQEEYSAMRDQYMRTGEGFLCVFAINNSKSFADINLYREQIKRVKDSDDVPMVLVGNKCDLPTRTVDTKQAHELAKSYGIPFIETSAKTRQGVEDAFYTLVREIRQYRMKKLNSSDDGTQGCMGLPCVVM
Sequence of GDP-bound KRAS wild-type protein (P01116 whole entry): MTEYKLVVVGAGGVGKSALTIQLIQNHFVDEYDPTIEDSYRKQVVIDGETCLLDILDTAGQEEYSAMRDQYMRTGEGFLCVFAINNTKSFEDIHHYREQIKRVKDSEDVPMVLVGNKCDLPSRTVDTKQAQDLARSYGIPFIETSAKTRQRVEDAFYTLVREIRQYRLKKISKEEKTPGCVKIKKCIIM
Sequence of GDP-bound HRAS wild-type protein (P01112 whole entry): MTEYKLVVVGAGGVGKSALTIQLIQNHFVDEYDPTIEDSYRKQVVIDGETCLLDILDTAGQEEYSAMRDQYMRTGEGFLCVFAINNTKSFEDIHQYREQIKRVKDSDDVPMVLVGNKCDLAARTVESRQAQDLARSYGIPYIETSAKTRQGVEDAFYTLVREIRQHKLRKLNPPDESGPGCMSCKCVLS

SMILES | NRAS/KRAS (ratio of KD value for NRAS to KD value for KRAS) [1, 4] | Kd ([2]; SPR, Single Cycle Kinetics) | HRAS/KRAS (ratio of KD value for HRAS to KD value for KRAS) [3, 5] | NRAS/KRAS (ratio of KD value with respect to GDP-bound NRAS wild-type protein to KD value with respect to KRAS) [1] | Kd [2, 6] | HRAS/KRAS (ratio of KD value with respect to GDP-bound HRAS wild-type protein to KD value with respect to KRAS) [3] | NRAS/KRAS (ratio of KD value with respect to NRAS to KD value with respect to KRAS) [1, 4] | HRAS/KRAS (ratio of KD value with respect to HRAS to KD value with respect to KRAS) [3, 5]
C#CC[C@H]1C(=O)N[C@@H]([C@@H](C)CC)C(=O)N(C)CC(=O)N(C)[C@H]2C/C=C\CCN(C2=O)[C@@H](Cc2ccc(C(F)(F)F)cc2)C(=O)N(C)CC(=O)N[C@@H](CCc2cc(F)c(C(F)(F)F)c(F)c2)C(=O)N2C[C@H](OCC)C[C@H]2C(=O)NC2(CC(C)(C)C2)C(=O)N(C)[C@@H](C2CCCC2)C(=O)N(C)[C@H](C(=O)N(C)CC)CC(=O)N1C [PP2073] | A (a compound having 10 or more and less than 20 is denoted as A) | 0.078 nM | A (a compound having 10 or more and less than 20 is denoted as A) |  |  |  |  | 
CCC[C@H]1C(=O)N[C@@H]([C@@H](C)CC)C(=O)N(C)CC(=O)N(C)[C@H]2C/C=C\CCN(C2=O)[C@@H](Cc2ccc(C)cc2)C(=O)N(C)CC(=O)N[C@@H](CCc2ccc(Cl)c(Cl)c2)C(=O)N2CCCCC[C@H]2C(=O)NC2(CC(C)(C)C2)C(=O)N(C)[C@@H](C(CC)CC)C(=O)N(C)[C@H](C(=O)N(C)C)CC(=O)N1C [PP2962] |  |  |  | AA (a compound having 20 or more is denoted as AA) | 1.2 nM | A (a compound having 10 or more and less than 20 is denoted as A) |  | 
CCC[C@H]1C(=O)N[C@@H]([C@@H](C)CC)C(=O)N(C)CC(=O)N(C)[C@H]2C/C=C\CCN(C2=O)[C@@H](Cc2ccc(C(F)(F)F)cc2)C(=O)N(C)CC(=O)N[C@@H](CCc2ccc3c(C)c(C)n(C)c3c2)C(=O)N2C[C@H](OCC)C[C@H]2C(=O)NC2(CC(C)(C)C2)C(=O)N(C)[C@@H](C2CCCC2)C(=O)N(C)[C@H](C(=O)N(C)C)CC(=O)N1C [PP2893] |  |  |  | A (a compound having 10 or more and less than 20 is denoted as A) | 2 nM | A (a compound having 10 or more and less than 20 is denoted as A) |  | 
CCO[C@@H]1C[C@H]2C(=O)NC3(CCC3)C(=O)N(C)[C@@H](C3CCCC3)C(=O)N(C)[C@H](C(=O)N(C)C)CC(=O)N(C)[C@@H](CC)C(=O)N[C@@H]([C@@H](C)CC)C(=O)N(C)CC(=O)N(C)[C@H]3CCCCN(C3=O)[C@@H](Cc3ccc(C(F)(F)F)cc3)C(=O)N(C)CC(=O)N[C@@H](CCc3ccc4sccc4c3)C(=O)N2C1 [PP0887] | C (A compound having a KD ratio of 0.1 or more and less than 3 is denoted as C) | 0.093 nM | C (A compound having a KD ratio of 0.1 or more and less than 3 is denoted as C) |  |  |  |  | 
C=CCCN1C(=O)[C@H](CC=C)N(C)C(=O)CN(C)C(=O)[C@H]([C@@H](C)CC)NC(=O)[C@H](CC(C)C)N(C)C(=O)C[C@@H](C(=O)N2CCOCC2)N(C)C(=O)[C@H](C2CCCC2)N(C)C(=O)C2(CCCC2)NC(=O)[C@@H]2CCCN2C(=O)[C@H](CCc2ccc(C(F)(F)F)c(Cl)c2)NC(=O)CN(C)C(=O)[C@@H]1Cc1ccc(C)cc1 [PP0140] ([NMeL]I[Sar][NMeAllylGly][X30][Sar][hPhe(3-Cl-4-CF3)]P[Ac5c][NMeGly(cPent)][NMeD]-Morpholide; lactam N-11) | C (A compound having a KD ratio of 0.1 or more and less than 3 is denoted as C) |  | B (a compound having 3 or more and less than 10 is denoted as B) |  | 800 nM |  |  | 
CCCN1C(=O)CN(C)C(=O)CN(CC)C(=O)[C@H]([C@@H](C)CC)NC(=O)[C@H](CC(C)C)N(C)C(=O)C[C@@H](C(=O)N(C)C)N(C)C(=O)[C@H](C2CCCC2)N(C)C(=O)C2(CCC2)NC(=O)[C@@H]2C[C@@H](OCC)CN2C(=O)[C@H](CCc2ccc(C(F)(F)F)c(Cl)c2)NC(=O)CN(C)C(=O)[C@@H]1Cc1ccc(C(F)(F)F)cc1 [PP0428] ([NMeL]I[NEtG][Sar][NPrPhe(4-CF3)][Sar][hPhe(3-Cl-4-CF3)][Hyp](Et)[Ac4c][NMeGly(cPent)][NMeD]-NMe2; lactam N-11) |  |  |  |  | 0.063 nM |  | B (a compound having 3 or more and less than 10 is denoted as B) | C (A compound having a KD ratio of 0.1 or more and less than 3 is denoted as C)
CCCN1CC(=O)NC2(CCCC2)C(=O)N(C)[C@@H](C2CCCC2)C(=O)N(C)[C@H](C(=O)N2CCOCC2)CC(=O)N(C)[C@@H](CC(C)C)C(=O)N[C@@H]([C@@H](C)CC)C(=O)N(CC)CC(=O)N(C)CC(=O)N(CCC)[C@@H](Cc2ccc(C(F)(F)F)cc2)C(=O)N(C)CC(=O)N[C@@H](CCc2ccc(C(F)(F)F)c(Cl)c2)C1=O [PP0301] ([NMeL]I[NEtG][Sar][NPrPhe(4-CF3)][Sar][hPhe(3-Cl-4-CF3)][NPrGly][Ac5c][NMeGly(cPent)][NMeD]-Morpholide; lactam N-11) | B (a compound having 3 or more and less than 10 is denoted as B) |  | C (A compound having a KD ratio of 0.1 or more and less than 3 is denoted as C) |  | 4.8 nM |  |  | 
